What was measured:
HEK293 cells = settings: for Cytotoxicity against HEK cells: 25 h

SMILES	Cytotoxicity against HEK cells (HEK293 cells; 20 µM)	also measured
Cn1cc(C(=O)N2CCN(CCOc3ccc(CN4CCC(Cc5ccccc5)CC4)cc3)CC2)c(=O)c2ccccc21 [Compound 58, 3-{[4-(2-{4-[(4-benzyl-1-piperidinyl)methyl]phenoxy}ethyl)-1-piperazinyl]carbonyl}-1-methyl-4(1H)-quinolinone]	0.602	–
O=C(Nc1cccc(N2CCC(NCCC(c3ccc(F)cc3)c3ccco3)CC2)c1)c1ccncc1 (stereo not shown) [Compound 61, N-[3-(4-{[3-(4-fluorophenyl)-3-(2-furyl)propyl]amino}-1-piperidinyl)phenyl]isonicotinamide]	0.173	–
O=C(NCCS(=O)(=O)N1CCc2ccccc2C1)C1CC(=O)N(c2ccc(Cl)cc2)C1 (stereo not shown) [Compound 74, 1-(4-chlorophenyl)-N-(2-((3,4-dihydroisoquinolin-2(1H)-yl)sulfonyl)ethyl)-5-oxopyrrolidine-3-carboxamide]	0.568	cytotoxicity in Vero cells (Vero cells): no cytotoxicity; growth of Vero cells (Vero cells): reduced the growth
COCc1ccc(C(=O)NCc2nc(-c3cccc(NC(=O)C4CCCN(C)C4)c3)oc2C)s1 (stereo not shown) [Compound 26, N-(3-{4-[({[5-(methoxymethyl)-2-thienyl]carbonyl}amino)methyl]-5-methyl-1,3-oxazol-2-yl}phenyl)-1-methyl-3-piperidinecarboxamide]	0.587	–
CC(C)(O)C#Cc1ccc(C(=O)N2CCCC(CCC(=O)NCc3ccccc3F)C2)cc1 (stereo not shown) [Compound 35, N-(2-fluorobenzyl)-3-{1-[4-(3-hydroxy-3-methyl-1-butyn-1-yl)benzoyl]-3-piperidinyl}propanamide]	0.580	–
Cc1ccc(N2CC(C(=O)NCCS(=O)(=O)N3CCc4ccccc4C3)CC2=O)cc1C (stereo not shown) [Compound 76, N-(2-((3,4-dihydroisoquinolin-2(1H)-yl)sulfonyl)ethyl)-1-(3,4-dimethylphenyl)-5-oxopyrrolidine-3-carboxamide]	0.520	–
Cc1ccc(N2CC(C(=O)NCCS(=O)(=O)N3CCc4ccccc4C3)CC2=O)cc1 (stereo not shown) [Compound 75, N-(2-((3,4-dihydroisoquinolin-2(1H)-yl)sulfonyl)ethyl)-5-oxo-1-(p-tolyl)pyrrolidine-3-carboxamide]	0.604	–
COc1cccc(N2CC(C(=O)NCCS(=O)(=O)N3CCc4ccccc4C3)CC2=O)c1 (stereo not shown) [Compound 77, N-(2-((3,4-dihydroisoquinolin-2(1H)-yl)sulfonyl)ethyl)-1-(3-methoxyphenyl)-5-oxopyrrolidine-3-carboxamide]	0.578	–
CN(Cc1ccc(OCCN2CCN(C(=O)C3Cc4ccccc4O3)CC2)cc1)Cc1ccc2ncccc2c1 (stereo not shown) [Compound 60, (4-{2-[4-(2,3-dihydro-1-benzofuran-2-ylcarbonyl)-1-piperazinyl]ethoxy}benzyl)methyl(6-quinolinylmethyl)amine]	0.572	–
COC(=O)c1c(NC(=O)C2CCCO2)c2cc(NCc3cccc(OCCO)c3)cnc2n1CCc1ccccc1 (stereo not shown) [Compound 69, methyl 5-{[3-(2-hydroxyethoxy)benzyl]amino}-1-(2-phenylethyl)-3-[(tetrahydro-2-furanylcarbonyl)amino]-1H-pyrrolo[2,3-b]pyridine-2-carboxylate]	0.529	effect on growth and proliferation of HEK293 cells (HEK293 cells): decreased the cell numbers; morphological changes in HEK293 cells (HEK293 cells; 20 µM): slightly triggered cellular shrinking
O=C(C1CCCN(c2cccc3c2C(=O)N(Cc2ccsc2)C3=O)C1)N1CCC(O)(c2cccc(C(F)(F)F)c2)CC1 (stereo not shown) [Compound 73, 4-[3-({4-hydroxy-4-[3-(trifluoromethyl)phenyl]-1-piperidinyl}carbonyl)-1-piperidinyl]-2-(3-thienylmethyl)-1H-isoindole-1,3(2H)-dione]	0.602	cytotoxicity in Vero cells (Vero cells): no cytotoxicity; growth of Vero cells (Vero cells): reduced the growth
O=C(CCCc1ccccc1)Nc1cccc(N2CCC(NCc3cccnc3)CC2)c1 [Compound 33, 4-phenyl-N-(3-{4-[(3-pyridinylmethyl)amino]-1-piperidinyl}phenyl)butanamide]	0.588	–
O=C(CCCN1C(=O)c2ccccc2C1=O)Nc1ccc2ccccc2c1 [Compound 4, 4-(1,3-dioxo-1,3-dihydro-2H-isoindol-2-yl)-N-2-naphthylbutanamide]	0.603	effect on growth and proliferation of HEK293 cells (HEK293 cells): decreased the cell numbers
O=C(NCCS(=O)(=O)N1CCN(c2ccc(F)cc2)CC1)C1CC(=O)N(c2ccccc2)C1 (stereo not shown) [Compound 78, N-(2-((4-(4-fluorophenyl)piperazin-1-yl)sulfonyl)ethyl)-5-oxo-1-phenylpyrrolidine-3-carboxamide]	0.574	–
O=C(c1cc(-c2ccc(F)cc2)n[nH]1)N1CCC(Cc2ccc(CO)cc2)C1 (stereo not shown) [Compound 22, {4-[(1-{[3-(4-fluorophenyl)-1H-pyrazol-5-yl]carbonyl}pyrrolidin-3-yl)methyl]phenyl}methanol]	0.596	–

Reference: publication PMC7327142 (Biomolecules & Therapeutics, 2020)
